# Values joined by “and” are separate entries in the source; they are usually repeats but may differ in a detail not shown here. Equal entries are not always repeated.
# Tests used:
# [1] = test system: lymph node metastases of head and neck squamous cell carcinoma; conditions: 21 metastatic lesions
# Description: (§1) Ten consecutive patients (median age 56, range 18-77 years), where of eight males and two females with histologically confirmed squamous cell carcinoma of the head and neck, were included in the study. None of the patients suffered from diabetes. […] Conventional staging of the tumors was performed by CT (n=9), MRI (n=1), histopathology and clinical examination. Histological confirmation was obtained by guided biopsies in all the primary tumors and most metastatic sites. […] All patients participating in the study provided informed consent. The study was accepted by the ethical committee of the participating hospital.
# (§2) In all patients, both FDG-PET and ACE-PET were performed before the radiotherapy treatment. ACE and FDG-PET scans were performed on the same or consecutive day, except for one patient where the two types of PET scanning were done five days apart. PET studies were carried out with a dedicated PET scanner (Siemens ECAT HR^+, Knoxville, Tenn., USA) or with a PET/CT (GE Discovery S T, Milwaukee, Wis., USA). All patients were normoglycemic and were fasted at least 6 hours before tracer injection.
# (§3) Whole-body scanning was performed one hour after intravenous injection of 5 MBq/kg body weight FDG. Six patients were examined by PET/CT and four patients were studied by PET alone. The patients were instructed to remain recumbent and avoid voicing and other uses of neck muscles during the uptake period.
# (§4) PET images were co-registered with the CT or MRI images in all patients by a normalized mutual information procedure supported by manual correction using Hermes Multimodality™ software (Nuclear Diagnostics, Stockholm, Sweden). FDG-PET and ACE-PET images were analyzed both qualitatively and quantitatively, using Hermes Volume Display™ version V2β. In qualitative analysis, PET images were interpreted visually by two nuclear medicine physicians and any disagreement was resolved by consensus. The tumor uptake of FDG and ACE was graded into negligible, mild, moderate and intensive compared to the contra-lateral or surrounding tissues. An abnormal uptake equal to or exceeding mild was considered positive. In quantitative analysis, the mean standardized uptake value (SUV) and tumor volumes delineated by ACE and FDG-PET were evaluated. SUV was calculated as mean radioactivity concentration in the volumes (Bq/cc) divided by injected dose (Bq) per kilogram body weight. […]
# (§5) Each tumor volume in FDG-PET and ACE-PET was delineated automatically by tracing an isoactivity pixel value set to 50% threshold of the maximum radioactivity corrected for background. The background was measured from a separately drawn region of interest (ROI) adjacent but at safe distance from the tumor. The isoactivity pixel value of each volume was calculated as: […]
# [2] = test system: primary tumors of head and neck squamous cell carcinoma; conditions: ten patients
# Description: as §1, §2, §3, §4, §5
# [3] = test system: salivary glands; experiment: ACE-PET physiological uptake in normal tissue; set-up: species or system human; conditions: in vivo
# Description: (§6) Six patients were studied with dedicated PET and four patients were investigated with PET/CT. A 32 minutes dynamic emission scan was performed immediately after intravenous injection of 10 MBq/kg body weight ACE. The scan time was 12×5s, 6×10s, 4×30s, 4×60s, 2×120s and 4×300s. Frame 30 (17-22 minutes after injection) generally provided the best image quality with highest tumor to background ratio and was therefore chosen for subsequent data analysis.
# [4] = test system: primary tumors of head and neck squamous cell carcinoma; experiment: ACE-PET imaging of primary tumors; format: in vivo, human
# Description: (§7) None of the patients suffered from diabetes. […] All patients participating in the study provided informed consent.
# as §6
# (§8) Isoactivity pixel value=(MPVtumor+APVbackground)×50%
# [5] = test system: lymph node metastases of head and neck squamous cell carcinoma; experiment: ACE-PET imaging of metastases; format: in vivo, human
# Description: as §7, §6, §8
Structure (SMILES),FDG SUV (mean±SD) [1],range of FDG SUV [1],"FDG-PET SUV, Mean ± SD [2]",range of FDG SUV [2],physiological uptake of ACE in salivary glands [3],"ACE-PET SUV ([4]; primary tumor, individual patient (one line per patient), 10 MBq/kg i.v., frame 17-22 min after injection)","ACE-PET Visual ([4]; primary tumor, individual patient, visual grading of uptake vs contra-lateral or surrounding tissue)","ACE-PET SUV, Mean ± SD ([4]; primary tumors, ten patients)","range of ACE SUV ([4]; primary tumors, ten patients)",ACE SUV (mean±SD) ([5]; 21 metastatic lesions),range of ACE SUV ([5]; 21 metastatic lesions),"ACE-PET SUV ([5]; individual metastasis (one line per lesion), 10 MBq/kg i.v., frame 17-22 min)","ACE-PET Visual ([5]; individual metastasis, visual grading of uptake)"
"OC[C@H]1OC(O)[C@H]([18F])[C@@H](O)[C@@H]1O (stereo partly drawn) [FDG, ^18F-fluoro-2-deoxy-D-glucose]",4.47±3.3,0.9-10.0,9.6±7.0,1.9-24.5,,,,,,,,,
"C[11C](=O)O [ACE, ^11C-acetate]",,,,,normally high physiological uptake,3.7 and 3.8 and 2.7 and 5.7 and 10.6 and 4.9 and 3.9 and 9.2 and 2.5 and 6.0,+ (2×) and +++ (4×) and ++ (4×),5.3±2.7,2.5-10.6,4.0±1.3,2.4-6.2,3.5 and 5.9 and 4.7 and 5.1 and 3.1 and 2.9 and 4.5 and 3.9 and 4.6 and 5.8 and 3.0 and 2.8 and 2.6 and 3.7 and 6.2 and 2.4 and 2.7,+++ (6×) and ++ (9×) and − and + (5×)

# Reference: patent US20100258138A1, “RADIOLABELED 1-ACETATE PET IMAGING FOR RA[…] HEAD AND NECK CANCER” (priority 2006, published 2010)
